Laboratory results taken from patent US10047096B2, “Substituted pyridobenzodiazepinone-derivatives and use thereof” (Bayer Pharma Aktiengesellschaft, priority 2014, dated 2018).
pIC50: −log10 of the molar value.

target: human PDGFRβ (Homo sapiens (Human), UniProt P09619); assay: PDGFRβ kinase assay (PDGFRβ-HTRF); assay type: biochemical; settings: 10 μM ATP; some mean values from multiple determinations
Experimental: The PDGFRβ-inhibitory activity of the inventive compounds was determined in the PDGFRβ-HTRF assay described hereinafter.
The kinase used was a recombinant fusion protein composed of N-terminal GST and a C-terminal fragment of human PDGFRβ (amino acids R561-L1106), expressed in baculovirus-infected insect cells (Sf9) and purified by affinity chromatography (from ProQinase GmbH, Freiburg, Germany). The substrate used for the kinase reaction was biotinylated poly-Glu,Tyr (4:1) copolymer (from Cisbio Bioassays, Codolet, France).
For the assay, 50 nl of a 100-fold concentrated solution of the test substance in DMSO was pipetted into a black “low-volume 384 well” microtitre plate (from Greiner Bio-One, Frickenhausen, Germany), then 2 μl of a solution of PDGFRβ in assay buffer [50 mM HEPES/NaOH pH 7.5, 10 mM MgCl2, 2.5 mM dithiothreitol, 0.01% (v/v) Triton-X100 (from Sigma)] was added and the mixture was incubated for 15 min, in order to enable preliminary binding of the substance to the enzyme before the kinase reaction. […] The resulting mixture was incubated at 22° C. for 1 h to allow formation of a complex of the biotinylated phosphorylated substrate and the detection reagents.
Subsequently, the amount of the phosphorylated substrate was evaluated by measuring the resonance energy transfer from the PT66-Eu chelate to the streptavidin-XL665. […] The IC50 values were calculated by a 4-parameter fit.

Sequence of human PDGFRβ (P09619 561-1106): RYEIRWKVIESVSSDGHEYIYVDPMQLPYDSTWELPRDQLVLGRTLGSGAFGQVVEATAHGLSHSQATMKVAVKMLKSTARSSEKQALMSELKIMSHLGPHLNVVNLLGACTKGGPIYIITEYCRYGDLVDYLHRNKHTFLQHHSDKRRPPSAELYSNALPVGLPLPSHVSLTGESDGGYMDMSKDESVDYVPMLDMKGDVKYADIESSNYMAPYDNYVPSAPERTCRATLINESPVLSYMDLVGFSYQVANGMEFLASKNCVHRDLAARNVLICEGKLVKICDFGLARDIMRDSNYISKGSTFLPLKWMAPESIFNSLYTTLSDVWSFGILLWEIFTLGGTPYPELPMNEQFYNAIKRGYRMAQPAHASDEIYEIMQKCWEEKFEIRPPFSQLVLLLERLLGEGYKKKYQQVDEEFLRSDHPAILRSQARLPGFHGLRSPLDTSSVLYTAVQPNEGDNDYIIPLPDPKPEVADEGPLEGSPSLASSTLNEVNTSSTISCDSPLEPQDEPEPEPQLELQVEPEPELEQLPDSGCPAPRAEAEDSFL

Row | pIC50 | SMILES
1 | 8.79 | CCOC(=O)[C@H]1C[C@H](NCc2ccc3c(c2)NC(=O)c2c(Nc4cc(O)c(C)cc4F)ccnc2N3)C1 [Example 192, trans-Ethyl 3-[({4-[(2-fluoro-5-hydroxy-4-methylphenyl)amino]-5-oxo-6,11-dihydro-5H-pyrido[2,3-b][1,5]benzodiazepin-8-yl}methyl)amino]cyclobutanecarboxylate]
2 | 9.14 | CCN(CCN)Cc1ccc2c(c1)NC(=O)c1c(Nc3cc(O)c(C)cc3F)ccnc1N2 [Example 200, 8-{[(2-Aminoethyl)(ethyl)amino]methyl}-4-[(2-fluoro-5-hydroxy-4-methylphenyl)amino]-6,11-dihydro-5H-pyrido[2,3-b][1,5]benzodiazepin-5-one]
3 | 8.26 | Cc1ccc(O)cc1Nc1ccnc2c1C(=O)Nc1cc(CNCCC(=O)N(C)C)ccc1N2 [Example 143]
4 | 8.71 | CCCNCc1ccc2c(c1)NC(=O)c1c(Nc3cc(O)ccc3C)ccnc1N2 [Example 125]
5 | 8.90 | O=C1Nc2cc(CN3CCC(O)CC3)ccc2Nc2nccc(Nc3cc(O)c(Cl)cc3F)c21 [Example 175, 4-[(4-Chloro-2-fluoro-5-hydroxyphenyl)amino]-8-[(4-hydroxypiperidin-1-yl)methyl]-6,11-dihydro-5H-pyrido[2,3-b][1,5]benzodiazepin-5-one]
6 | 8.81 | CCN(Cc1ccc2c(c1)NC(=O)c1c(Nc3cc(O)c(C)cc3F)ccnc1N2)CC(C)O (single isomer, unassigned; ent-8) [Example 206, ent-8-{[Ethyl(2-hydroxypropyl)amino]methyl}-4-[(2-fluoro-5-hydroxy-4-methylphenyl)amino]-6,11-dihydro-5H-pyrido[2,3-b][1,5]benzodiazepin-5-one (Enantiomer 2)]
7 | 8.69 | Cc1ccc(O)cc1Nc1ccnc2c1C(=O)Nc1cc(CNC3CCOCC3)ccc1N2 [Example 136]
8 | 9.08 | Cc1cc(F)c(Nc2ccnc3c2C(=O)Nc2cc(CN4CCC[C@@H](N)C4)ccc2N3)cc1O [Example 212, 8-{[(3R)-3-Aminopiperidin-1-yl]methyl}-4-[(2-fluoro-5-hydroxy-4-methylphenyl)amino]-6,11-dihydro-5H-pyrido[2,3-b][1,5]benzodiazepin-5-one]
9 | 8.76 | Cc1cc(F)c(Nc2ccnc3c2C(=O)Nc2cc(CNC4CCC4)ccc2N3)cc1O [Example 188, 8-[(Cyclobutylamino)methyl]-4-[(2-fluoro-5-hydroxy-4-methylphenyl)amino]-6,11-dihydro-5H-pyrido[2,3-b][1,5]benzodiazepin-5-one]
10 | 8.14 | Cc1cc(F)c(Nc2ccnc3c2C(=O)Nc2cc(C(=O)N4C[C@H](O)C[C@H]4CO)ccc2N3)cc1O [Example 160, 4-[(2-Fluoro-5-hydroxy-4-methylphenyl)amino]-8-{[(2S,4R)-4-hydroxy-2-(hydroxymethyl)pyrrolidin-1-yl]carbonyl}-6,11-dihydro-5H-pyrido[2,3-b][1,5]benzodiazepin-5-one]
11 | 8.75 | CCN(Cc1ccc2c(c1)NC(=O)c1c(Nc3cc(O)c(C)cc3F)ccnc1N2)CC(C)O (single isomer, unassigned; ent-8) [Example 205, ent-8-{[Ethyl(2-hydroxypropyl)amino]methyl}-4-[(2-fluoro-5-hydroxy-4-methylphenyl)amino]-6,11-dihydro-5H-pyrido[2,3-b][1,5]benzodiazepin-5-one (Enantiomer 1)]
12 | 8.69 | Cc1cc(F)c(Nc2ccnc3c2C(=O)Nc2cc(CN4CC[C@H](N)C4)ccc2N3)cc1O [Example 215, 8-{[(3S)-3-Aminopyrrolidin-1-yl]methyl}-4-[(2-fluoro-5-hydroxy-4-methylphenyl)amino]-6,11-dihydro-5H-pyrido[2,3-b][1,5]benzodiazepin-5-one]
13 | 8.24 | Cc1ccc(O)cc1Nc1ccnc2c1C(=O)Nc1cc(CNCC(C)N3CCOCC3)ccc1N2 (stereo not drawn) [Example 135]
14 | 8.69 | Cc1ccc(O)cc1Nc1ccnc2c1C(=O)Nc1cc(CNC(C)(C)CN3CCCC3)ccc1N2 [Example 131]
15 | 8.52 | Cc1ccc(O)cc1Nc1ccnc2c1C(=O)Nc1cc(CNC3CCCCC3C)ccc1N2 (stereo not drawn) [Example 124]

Continued, compound first:

Row | SMILES | pIC50
16 | Cc1ccc(O)cc1Nc1ccnc2c1C(=O)Nc1cc(CN3CCCC3)ccc1N2 [Example 40, 4-[(5-Hydroxy-2-methylphenyl)amino]-8-(pyrrolidin-1-ylmethyl)-6,11-dihydro-5H-pyrido[2,3-b][1,5]benzodiazepin-5-one] | 8.74
17 | N#Cc1ccc2c(c1)NC(=O)c1c(Nc3cc(O)c(Cl)cc3Cl)ccnc1N2 [Example 10, 4-[(2,4-Dichloro-5-hydroxyphenyl)amino]-5-oxo-6,11-dihydro-5H-pyrido[2,3-b][1,5]benzodiazepine-8-carbonitrile] | 7.18
18 | CNCc1ccc2c(c1)NC(=O)c1c(Nc3cc(O)ccc3C)ccnc1N2 [Example 22, 4-[(5-Hydroxy-2-methylphenyl)amino]-8-[(methylamino)methyl]-6,11-dihydro-5H-pyrido[2,3-b][1,5]benzodiazepin-5-one] | 8.55
19 | Cc1cc(F)c(Nc2ccnc3c2C(=O)Nc2cc(C(N)=O)ccc2N3)cc1O [Example 80, 4-[(2-Fluoro-5-hydroxy-4-methylphenyl)amino]-5-oxo-6,11-dihydro-5H-pyrido[2,3-b][1,5]benzodiazepine-8-carboxamide] | 8.13
20 | Cc1cc(F)c(Nc2ccnc3c2C(=O)Nc2cc(C(=O)N4CCOCC4)ccc2N3)cc1O [Example 85, 4-[(2-Fluoro-5-hydroxy-4-methylphenyl)amino]-8-(morpholin-4-ylcarbonyl)-6,11-dihydro-5H-pyrido[2,3-b][1,5]benzodiazepin-5-one] | 7.86
21 | N#Cc1ccc2c(c1)NC(=O)c1c(Nc3cc(O)c(F)cc3F)ccnc1N2 [Example 38, 4-[(2,4-Difluoro-5-hydroxyphenyl)amino]-5-oxo-6,11-dihydro-5H-pyrido[2,3-b][1,5]benzodiazepine-8-carbonitrile] | 8.15
22 | Cc1ccc(O)cc1Nc1ccnc2c1C(=O)Nc1cc(CNC(C)CN(C)C)ccc1N2 (stereo not drawn) [Example 122] | 8.49
23 | Cc1cc(F)c(Nc2ccnc3c2C(=O)Nc2cc(CNC(C)C4CCCCC4)ccc2N3)cc1O (racemic) [Example 77, rac-8-{[(1-Cyclohexylethyl)amino]methyl}-4-[(2-fluoro-5-hydroxy-4-methylphenyl)amino]-6,11-dihydro-5H-pyrido[2,3-b][1,5]benzodiazepin-5-one] | 8.31
24 | Cc1cc(F)c(Nc2ccnc3c2C(=O)Nc2cc(C(=O)O)ccc2N3)cc1O [Example 79, 4-[(2-Fluoro-5-hydroxy-4-methylphenyl)amino]-5-oxo-6,11-dihydro-5H-pyrido[2,3-b][1,5]benzodiazepine-8-carboxylic acid] | 6.67
25 | Cc1ccc(O)cc1Nc1ccnc2c1C(=O)Nc1cc(CNCC(N)=O)ccc1N2 [Example 16, N^2-({4-[(5-Hydroxy-2-methylphenyl)amino]-5-oxo-6,11-dihydro-5H-pyrido[2,3-b][1,5]benzodiazepin-8-yl}methyl)glycinamide] | 8.15
26 | Cc1cc(F)c(Nc2ccnc3c2C(=O)Nc2cc(CN4CCC(O)CC4)ccc2N3)cc1O [Example 45, 4-[(2-Fluoro-5-hydroxy-4-methylphenyl)amino]-8-[(4-hydroxypiperidin-1-yl)methyl]-6,11-dihydro-5H-pyrido[2,3-b][1,5]benzodiazepin-5-one] | 9.03
27 | N#Cc1ccc2c(c1)NC(=O)c1c(Nc3cc(O)c(F)c(F)c3)ccnc1N2 [Example 8, 4-[(3,4-Difluoro-5-hydroxyphenyl)amino]-5-oxo-6,11-dihydro-5H-pyrido[2,3-b][1,5]benzodiazepine-8-carbonitrile] | 8.32
28 | Cc1ccc(O)cc1Nc1ccnc2c1C(=O)Nc1cc(C#N)ccc1N2 [Example 1, 4-[(5-Hydroxy-2-methylphenyl)amino]-5-oxo-6,11-dihydro-5H-pyrido[2,3-b][1,5]benzodiazepine-8-carbonitrile] | 8.27
29 | Cc1ccc(O)cc1Nc1ccnc2c1C(=O)Nc1cc(CNC[C@H](C)c3ccccc3)ccc1N2 [Example 117] | 8.46
30 | Cc1cc(F)c(Nc2ccnc3c2C(=O)Nc2cc(CN4CCN(CCO)CC4)ccc2N3)cc1O [Example 47, 4-[(2-Fluoro-5-hydroxy-4-methylphenyl)amino]-8-{[4-(2-hydroxyethyl)piperazin-1-yl]methyl}-6,11-dihydro-5H-pyrido[2,3-b][1,5]benzodiazepin-5-one] | 8.44
31 | Cc1ccn(CCCNCc2ccc3c(c2)NC(=O)c2c(Nc4cc(O)ccc4C)ccnc2N3)n1 [Example 101] | 8.53
32 | Cc1cc(F)c(Nc2ccnc3c2C(=O)Nc2cc(CN)ccc2N3)cc1O [Example 87, 8-(Aminomethyl)-4-[(2-fluoro-5-hydroxy-4-methylphenyl)amino]-6,11-dihydro-5H-pyrido[2,3-b][1,5]benzodiazepin-5-one] | 8.85
33 | Cc1cc(F)c(Nc2ccnc3c2C(=O)Nc2cc(CN4CCC(C)C(O)C4)ccc2N3)cc1O (stereo not drawn) [Example 59, 4-[(2-Fluoro-5-hydroxy-4-methylphenyl)amino]-8-[(3-hydroxy-4-methylpiperidin-1-yl)methyl]-6,11-dihydro-5H-pyrido[2,3-b][1,5]benzodiazepin-5-one] | 8.74
